Results taken from patent US7291469B2, “Mutant met and uses therefor” (The Regents of the University of California, priority 2004, dated 2007).

Columns and labels:
canine OSA cells = assay: Scattering and migration of canine OSA cells under growth factor deprivation with HGF; type: cell-based; conditions: medium without fetal bovine serum, HGF added
Text: To evaluate the ability of OSA cells to scatter and migrate, we cultured cells in medium containing fetal bovine serum or no fetal bovine serum (stressful condition), then stimulated with HGF. The OSA cells began to show evidence of morphology change (scattering) upon growth factor deprivation.

canine Met = assay: Met phosphorylation in canine tumor cell lines after rhHGF stimulation; type: cell-based
canine Met, sequence (Q75ZY9 25-308 limits assumed): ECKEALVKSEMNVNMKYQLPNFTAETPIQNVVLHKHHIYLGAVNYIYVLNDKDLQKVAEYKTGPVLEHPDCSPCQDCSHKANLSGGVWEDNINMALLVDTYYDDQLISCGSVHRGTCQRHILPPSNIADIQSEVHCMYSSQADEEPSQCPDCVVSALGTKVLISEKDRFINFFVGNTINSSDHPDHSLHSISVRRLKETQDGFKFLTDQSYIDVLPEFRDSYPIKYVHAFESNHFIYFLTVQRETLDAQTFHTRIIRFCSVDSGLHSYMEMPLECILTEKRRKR
canine Met, sequence (Q75ZY9 309-516 limits assumed): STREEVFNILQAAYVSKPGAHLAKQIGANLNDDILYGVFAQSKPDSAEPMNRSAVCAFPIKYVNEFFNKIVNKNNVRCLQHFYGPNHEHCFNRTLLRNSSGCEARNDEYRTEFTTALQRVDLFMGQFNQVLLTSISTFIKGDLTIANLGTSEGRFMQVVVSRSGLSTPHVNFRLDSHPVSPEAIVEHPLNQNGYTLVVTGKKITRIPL
Method: It is possible that this mutation results in the basal phosphorylation of Met in this cell line.
To determine whether HGF stimulation of canine Met induces appropriate Met autophosphorylation and downstream signal transduction, Met expressing tumor cell lines were treated with recombinant human HGF and the phosphorylation of Met on several specific tyrosines as well as phosphorylation of downstream signaling components were evaluated. […] It was then necessary to determine whether all critical tyrosine residues were phosphorylated after rhHGF exposure, as it was possible that the recombinant human protein was only inducing partial or incomplete signal transduction. […] Although this could be attributed to autocrine HGF and HGFA production, the D17 cell line also has the D544N mutation.

[1] = system: NIH-3T3 cells stably transfected with canine Met constructs; assay: Gap migration assay in NIH-3T3 cells stably transfected with canine Met constructs; type: cell-based; conditions: R988C, M1251T, D544N, G966S Met lines; 50 ng/ml; 24 hours
Method: Cells were allowed to grow to confluence in tissue culture, then defects were created manually to create a “gap” in the cells. The cells were then left in medium alone or treated with recombinant human HGF (rhHGF) at 50 ng/ml. Cells were also treated with a Met inhibitor in the absence or presence of rhHGF. Cultures were evaluated 24 hours later by staining the cells with crystal violet and digital imaging.

Gab-1, Erk1/2, and Akt = assay: Phosphorylation of downstream signal transduction components Gab-1, Erk1/2 and Akt after rhHGF stimulation; type: cell-based, canine
Text: The activation of downstream signal transduction components Gab-1, Erk1/2, and Akt were then examined. […] It is possible that in these cases, other growth factor pathways contribute to this high level of basal phosphorylation.

Met gene expression = Met gene expression by semi-quantitative RT-PCR under hypoxia mimic; type: cell-based; conditions: two canine OSA cell lines
Text: To evaluate the effects of hypoxia on Met gene expression, we cultured two different canine OSA cell lines in the presence of cobalt chloride, an agent that mimics hypoxia. […] Given the substantial data indicating a role of Met in a variety of human cancers, it is likely that dysregulation of Met will play a similar role in canine cancers.

Molecule	morphology change (scattering) (canine OSA cells)	phosphorylation of Met tyrosines 1003, 1230/34/35, 1349 and 1365 (canine Met; OSA8 canine OSA cell line)	concentration of maximal stimulation of Met phosphorylation (canine Met; canine OSA cell lines)	phosphorylation of canine Met (canine Met; canine OSA cell lines)	migration compared to NIH-3T3 expressing wild-type Met [1]	Erk and Akt phosphorylation (Gab-1, Erk1/2, and Akt; Mel 3 and Mel 8 cell lines)	Gab-1 phosphorylation (Gab-1, Erk1/2, and Akt; each of the canine cell lines tested)	Met gene expression (Met gene expression)
rhHGF: recombinant human hepatocyte growth factor, the ligand for Met	further enhanced	all phosphorylated appropriately	50 ng/mL	induced phosphorylation of canine Met in all cell lines tested in a dose dependent fashion	markedly increased	inducible Erk and Akt phosphorylation	Gab-1 was phosphorylated	–
[Cl][Co][Cl] [cobalt chloride]	–	–	–	–	–	–	–	upregulation of Met gene expression
